# Data reported in PMC4126480, “Evaluation of drug interaction potential of Labisia pumila (Kacip Fatimah) and its constituents” (Frontiers in Pharmacology, 2014).
# What was measured:
# P-gp [1] = biological target: T1, P-gp (Homo sapiens, UniProt P08183); assay: P-gp inhibition by 3H-digoxin basolateral to apical transport in hMDR1-MDCK-II cells
# Method: The cells were seeded at a density of 120,000 cells/well in 12-well Transwell plates and cultured for 3 days. […] Cells were washed with warm HBSS buffer supplemented with 10 mM HEPES (pH 7.4) and pre-incubated with 0.5 mL of buffer containing test samples (six concentrations) on the apical side and 1.5 mL of buffer on the basolateral side for 30 min (37 °C, 5% CO2, and 95% relative humidity). […] Aliquots of 25 μL were taken out from the apical side, mixed with 100 μL of scintillant (Microscint TM-40, PerkinElmer) and radioactive counts were measured on a TopCount microplate scintillation counter (PerkinElmer, Waltham, MA, USA) in CPM mode.
# The inhibition of the basolateral to apical (B-A) transport of digoxin by test samples was calculated compared to the vehicle control.
# PXR = biological target: T2, PXR (Homo sapiens, UniProt O75469); assay: Inhibition of rifampicin-induced PXR activity, reporter gene assay in HepG2 cells; type: cell-based; conditions: extract 3–30 μg/mL, saponins 3–30 μM
# T2 construct: expressed in transfected cells; host or cells: HepG2 cells, transient electroporation with pSG5-PXR and the CYP3A4-PXRE-LUC reporter
# T2 sequence (O75469 1-434): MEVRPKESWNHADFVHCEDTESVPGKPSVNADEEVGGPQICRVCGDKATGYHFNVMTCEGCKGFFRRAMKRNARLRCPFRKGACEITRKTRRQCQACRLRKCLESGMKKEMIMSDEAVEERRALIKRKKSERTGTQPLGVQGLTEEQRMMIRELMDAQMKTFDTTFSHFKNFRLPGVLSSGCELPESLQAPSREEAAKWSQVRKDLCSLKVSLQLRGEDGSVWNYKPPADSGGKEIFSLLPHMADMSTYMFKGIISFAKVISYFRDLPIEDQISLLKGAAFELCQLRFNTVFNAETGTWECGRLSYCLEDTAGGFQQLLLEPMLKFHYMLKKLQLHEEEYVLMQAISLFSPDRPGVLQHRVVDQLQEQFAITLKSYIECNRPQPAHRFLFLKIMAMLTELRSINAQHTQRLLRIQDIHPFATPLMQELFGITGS
# Source text: The pSG5-hPXR expression vector was provided generously by Dr. Steven Kliewer (University of Texas Southwestern Medical Center, Dallas, TX, USA; [Lehmann et al., 1998]) and the reporter plasmid CYP3A4-PXR response element (PXRE)-LUC (containing the proximal 0/–362 and distal 7208/7797 PXRE regions fused upstream of luciferase; [Goodwin et al., 1999]) was a kind gift from Dr. Christopher Liddle (University of Sydney, Westmead, NSW, Australia). The modulation of PXR activity by test samples was determined in HepG2 cells transiently transfected with pSG5-PXR (25 μg) and PCR5 plasmid DNA (25 μg) by electroporation at 180 V, 1 pulse for 70 msec. The cells were plated in 96-well plates at a density of 50,000 cells per well. […] After additional 24 hour incubation, the media was aspirated and 40 μL of luciferase reagent (Promega Corporation, Madison, WI, USA) was added to each well and luminescence was measured on Spectramax M5 plate reader (Molecular Devices, Sunnyvale, CA, USA). The fold induction in luciferase activity in the treated cells was calculated in comparison to vehicle treated cells. The cytotoxicity of test samples toward HepG2 cells was also determined by measuring the cell viability using the CellTiter 96 AQueous One Solution Cell Proliferation Assay (MTS) as described earlier ([Manda et al., 2013]).
# [2] = Estimation of concentration per dose, GIT and plasma concentrations (560 mg KF extract dose); parameters: species or system human; conditions: for Estimated concentration per dose: 560 mg KF extract, single dose, from % yield; for Estimated GIT concentration / Estimated Plasma concentration: 560 mg dose; for Estimated GIT concentration: human GIT volume 250 mL; for Estimated Plasma concentration: Table 2, plasma volume 3 L, 100% bioavailable assumed
# Method: All assumptions to predict the HDI potential of KF methanolic extract and its constituents were according to previously published report ([Awortwe et al., 2014]). The % yield was calculated from the amounts extracted from the KF roots ([Ali and Khan, 2011]). The human GIT volume is 250 mL and plasma volume is about 3 L. The commonly used maximum dose of KF extract capsules is 560 mg per day ([Abdul Kadir et al., 2012]) and accordingly we estimated the concentration per dose, GIT, and plasma concentrations of extract and its constituents. We then compared the in vitro IC50 values obtained from recombinant CYPs with estimated GIT and plasma concentrations. If the IC50 values were lower than the GIT or plasma concentration, then the test compound or extract is likely to cause HDI in vivo.
# P-gp [3] = biological target: T1, P-gp; assay: P-gp inhibition by calcein-AM uptake in hMDR1-MDCK-II cells
# Method: Cells were seeded in 96-well plates at 70,000 cells/well in 200 μL of culture medium. The medium was changed at 24 h after seeding and the assay was performed 48 h later.
# [4] = system: hMDR1-MDCK-II cell monolayers; assay: Monolayer integrity: permeability of Lucifer yellow; type: in vitro ADME, canine; conditions: paracellular marker
# Method: The cells were seeded at a density of 120,000 cells/well in 12-well Transwell plates and cultured for 3 days. TEER values were in the range of 500–800 Ω cm^2. Cells were washed with warm HBSS buffer supplemented with 10 mM HEPES (pH 7.4) and pre-incubated with 0.5 mL of buffer containing test samples (six concentrations) on the apical side and 1.5 mL of buffer on the basolateral side for 30 min (37 °C, 5% CO2, and 95% relative humidity).
# T1 sequence (P08183 whole entry): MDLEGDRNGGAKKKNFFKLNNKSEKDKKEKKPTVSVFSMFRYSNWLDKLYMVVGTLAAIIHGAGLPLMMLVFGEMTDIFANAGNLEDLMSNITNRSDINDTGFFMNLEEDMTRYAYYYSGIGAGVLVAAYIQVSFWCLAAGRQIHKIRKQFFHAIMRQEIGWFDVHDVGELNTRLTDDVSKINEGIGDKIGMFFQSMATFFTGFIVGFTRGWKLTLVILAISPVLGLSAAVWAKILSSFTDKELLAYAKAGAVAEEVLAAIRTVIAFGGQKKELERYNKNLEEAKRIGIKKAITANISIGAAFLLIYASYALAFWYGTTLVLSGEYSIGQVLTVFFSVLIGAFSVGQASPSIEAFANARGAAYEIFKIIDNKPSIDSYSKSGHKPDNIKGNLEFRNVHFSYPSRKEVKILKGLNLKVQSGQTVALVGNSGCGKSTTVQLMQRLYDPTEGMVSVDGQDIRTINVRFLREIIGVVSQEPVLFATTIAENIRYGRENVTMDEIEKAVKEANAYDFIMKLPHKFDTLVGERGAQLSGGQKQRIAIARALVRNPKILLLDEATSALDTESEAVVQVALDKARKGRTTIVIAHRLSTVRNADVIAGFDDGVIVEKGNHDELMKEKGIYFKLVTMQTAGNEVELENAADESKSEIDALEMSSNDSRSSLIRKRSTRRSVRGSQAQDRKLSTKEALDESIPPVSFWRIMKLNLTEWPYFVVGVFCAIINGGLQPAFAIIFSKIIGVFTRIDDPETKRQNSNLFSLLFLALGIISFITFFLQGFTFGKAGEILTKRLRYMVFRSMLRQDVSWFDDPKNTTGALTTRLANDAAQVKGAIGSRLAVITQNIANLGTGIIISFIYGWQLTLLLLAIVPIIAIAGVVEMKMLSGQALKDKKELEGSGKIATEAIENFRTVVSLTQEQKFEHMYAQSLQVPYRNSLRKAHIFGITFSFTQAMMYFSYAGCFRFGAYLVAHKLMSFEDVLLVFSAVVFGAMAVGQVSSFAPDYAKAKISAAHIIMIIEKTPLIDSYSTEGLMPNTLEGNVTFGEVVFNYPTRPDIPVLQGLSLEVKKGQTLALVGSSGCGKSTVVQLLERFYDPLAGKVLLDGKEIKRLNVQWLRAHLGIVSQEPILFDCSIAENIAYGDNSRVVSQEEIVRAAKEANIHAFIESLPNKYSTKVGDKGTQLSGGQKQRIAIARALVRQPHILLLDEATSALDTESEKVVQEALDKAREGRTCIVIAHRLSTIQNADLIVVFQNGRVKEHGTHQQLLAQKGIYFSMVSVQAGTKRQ
Molecule,IC50 (P-gp [1]) [µM],Effect on rifampicin-induced PXR activity (PXR),Estimated concentration per dose [2] [mg/mL],Estimated GIT concentration [2] [µg/mL],Estimated Plasma concentration [2] [µg/mL],EC50 (P-gp [3]) [µM],Papp value [4]
C[C@@H]1O[C@@H](O[C@H]2[C@H](O[C@H]3CO[C@@H](O[C@H]4CC[C@]5(C)[C@H]6CC[C@]78OC[C@@]9(CC[C@](C)(C=O)C[C@H]97)C(=O)C[C@@]8(C)[C@]6(C)CC[C@H]5C4(C)C)[C@H](O)[C@H]3O)O[C@H](CO)[C@@H](O)[C@@H]2O)[C@H](O)[C@H](O)[C@H]1O [Ardisimamilloside H],4.2 ± 1.1,dose dependently decreased,0.011,0.047,0.003,42 ± 3.5,–
CC1(C)[C@@H](O[C@@H]2OC[C@H](O[C@@H]3O[C@H](CO)[C@@H](O)[C@H](O)[C@H]3O[C@@H]3OC[C@@H](O)[C@H](O)[C@H]3O)[C@H](O)[C@H]2O)CC[C@]2(C)[C@H]3CC[C@]45OC[C@@]6(CC[C@](C)(C=O)C[C@H]64)[C@H](O)C[C@@]5(C)[C@]3(C)CC[C@@H]12 [Primulanin],6.4 ± 2.3,dose dependently decreased,0.07,0.31,0.026,34 ± 2.3,–
Lucifer yellow [LY],–,–,–,–,–,–,1.1 ± 0.8 × 10^-6 cm/s
